Data taken from US10309967B2, “Methods of diagnosing bipolar disorders and screening for therapeutic compounds” (National University Corporation Chiba University, priority 2015, dated 2019).
“Also recorded” adds a separate entry of the source.

Legend:
[1] = tested on: Idh3b; experiment: Quantitative PCR of Idh3b mRNA in rat prefrontal cortex and hippocampus after Li or VPA; format: in vivo; details: normalized to Gapdh; for Idh3b gene expression: relative to control, mean ± SD
Procedure: (§1) Real-time quantitative RT-PCR analysis was conducted using an ABI7900HT Fast Real-Time PCR System (Applied Biosystems, Foster City, Calif.) in both human and rat samples. TaqMan probes and primers for the seven genes (ACO1, ACO2, IDH1, IDH2, IDH3A, IDH3B, IDH3G) and GAPDH (an internal control) (Table 11) were TAQMAN® Gene Expression Assays products (Applied Biosystems).
(§2) The CSF concentrations of 116 major metabolites from several pathways were measured. […] Male Sprague-Dawley rats (Japan SLC Inc., Shizuoka, Japan) aged 6 weeks old were used in this study. All rats were housed in groups of three per cage in a room maintained at 23° C.±2° C. and 60±10% humidity with a 12/12 hour light/dark cycle (lights on at 7:00 a.m.). The rats were given free access to food and water. Animal care and use were conducted in accordance with the Institutional Guidelines for Animal Care and Use of Otsuka Pharmaceutical Co., Ltd. (Tokushima, Japan). […] The drinking water was replaced twice a week. […] All animals were decapitated on day 30 after CSF sampling, and brain regions (prefrontal cortex, and hippocampus) were dissected rapidly on ice. Metabolomic analyses of rat CSF samples were performed as described herein.
(§3) Prefrontal cortex, and hippocampus were dissected rapidly on ice and stored in RNA later (Applied Biosystems) at 4° C. until used for RNA isolation, cDNA synthesis and polymerase chain reaction (PCR) amplification. The total RNA was extracted using the RNeasy Lipid Tissue Mini Kit (QIAGEN) following the instructions of manufacturer. RNA yield and integrity was assessed using Nanodrop (NanoDrop Technologies). Reverse transcription of total RNA was done using the […] VILO cDNA Synthesis Kit (Invitrogen). In the quantitative PCR, the cDNA was amplified using commercial TaqMan assays (Applied Biosystems) for rat Idh3A (Rn00586270_m1), Idh3B (Rn00504589_g1), Aco1 (Rn00569045_m1), Aco2 (Rn00577876_m1) and Gapdh (Rn01775763_g1) with an ABI 7500 Fast Real-Time PCR system (Applied Biosystems). (Table 17) Reactions were performed in triplicates. All reactions were normalized to Gapdh and presented as relative expression changes compared to control.

[2] = tested on: serum samples from rats; experiment: Metabolomics of serum samples from rats chronically treated with Li or VPA; format: in vivo, rat; details: chronic (4-weeks) treatment
Procedure: Data from human samples are presented as mean±standard deviation (SD). Statistical analysis was performed using SAS software version 9.3 (SAS Institute, Cary, N.C.). Analyses of metabolites between control and BD groups were performed using unpaired t-tests and Wilcoxon rank sum tests. A logistic regression model with a stepwise selection method was used for the multivariate analysis and multiple regression analysis (consistent with description in Allen et al., Technometrics. 1974; 16(1):125-127; and Miller et al., Chapman and Hall. 1974, which are incorporated in their entireties by reference herein). […] The Mann-Whitney U test (two-tailed) was used to evaluate changes in expression levels of the ACO and IDH genes between control and BD groups. Rat data are presented as mean±SD. To determine the effects of drug treatment, a one-way ANOVA, followed by the post hoc Dunnett's test was used. P values of less than 0.05 for two-tailed tests were considered statistically significant.
as §2
The serum concentrations of 116 major metabolites from several pathways were measured.

[3] = tested on: Idh3a; experiment: Quantitative PCR of Idh3a mRNA in rat prefrontal cortex and hippocampus after Li or VPA; format: in vivo; details: normalized to Gapdh; for Idh3a gene expression: relative to control, mean ± SD
Procedure: as §1, §2, §3

[4] = tested on: Aco2; experiment: Quantitative PCR of Aco2 mRNA in rat prefrontal cortex and hippocampus after Li or VPA; format: in vivo; details: normalized to Gapdh; for Aco2 gene expression: relative to control, mean ± SD
Procedure: as §1, §2, §3

[5] = tested on: Aco1; experiment: Quantitative PCR of Aco1 mRNA in rat prefrontal cortex and hippocampus after Li or VPA; format: in vivo; details: normalized to Gapdh; for Aco1 gene expression: relative to control, mean ± SD
Procedure: as §1, §2, §3

[6] = rat prefrontal cortex and hippocampus, chronic (4-weeks) treatment, vs control

## O=C([O-])[O-].[Li+].[Li+] [Li, lithium carbonate]
[1]; rat hippocampus
  Idh3b gene expression: 1.3074 ± 0.2494
[1]; [6]
  mRNA levels of Idh3b: did not alter; also recorded: not altered
[1]; rat prefrontal cortex
  Idh3b gene expression: 1.3440 ± 0.4424
[2]; rat serum
  2,3-Diphosphoglyceric acid Mean: 2.3
  2-Hydroxyglutaric acid Mean: 2.7
  2-Oxoglutaric acid Mean: 64
  2-Oxoisovaleric acid Mean: 12
  2-Phosphoglyceric acid Mean: 0.7
  3-Phosphoglyceric acid Mean: 5.5
  ADP-ribose Mean: 0.2
  AMP Mean: 0.5
  ATP Mean: 4.3
  Ala Mean: 671
  Arg Mean: 206
  Argininosuccinic acid Mean: 0.6
  Asn Mean: 87
  Asp Mean: 13
  Betaine Mean: 259
  Carnitine Mean: 65
  Carnosine Mean: 0.2
  Choline Mean: 15
  Citric acid Mean: 212
  Citrulline Mean: 103
  Creatine Mean: 104
  Creatinine Mean: 26
  Cystathionine Mean: 1.2
  Fructose 1,6-diphosphate Mean: 0.3
  Fructose 6-phosphate Mean: 0.10
  Fumaric acid Mean: 4.0
  GDP Mean: 0.5
  GMP Mean: 0.12
  GTP Mean: 2.0
  Gln Mean: 817
  Glu Mean: 140
  Glucose 6-phosphate Mean: 0.6
  Glutathione (GSSG) Mean: 0.5
  Gly Mean: 340
  Glycerol 3-phosphate Mean: 3.1
  Glycolic acid Mean: 9.4
  His Mean: 89
  Hydroxyproline Mean: 65
  IMP Mean: 0.14
  Ile Mean: 119
  Isocitric acid Mean: 9.5
  Lactic acid Mean: 2,764
  Leu Mean: 199
  Lys Mean: 468
  Malic acid Mean: 23
  Met Mean: 59
  Mevalonic acid Mean: 0.05
  N,N-Dimethylglycine Mean: 18
  N-Carbamoylaspartic acid Mean: 0.02
  NAD^+ Mean: 1.1
  Ornithine Mean: 75
  Phe Mean: 67
  Phosphocreatine Mean: 0.7
  Pro Mean: 272
  Putrescine Mean: 0.4
  Pyruvic acid Mean: 126
  Ribose 1-phosphate Mean: 0.3
  Ribose 5-phosphate Mean: 0.04
  Ribulose 5-phosphate Mean: 0.2
  Sarcosine Mean: 7.2
  Ser Mean: 319
  Succinic acid Mean: 17
  Thr Mean: 298
  Trp Mean: 148
  Tyr Mean: 95
  UDP-glucose Mean: 0.6
  Urea Mean: 6,360
  Uric acid Mean: 23
  Val Mean: 283
  cAMP Mean: 0.04
  cGMP Mean: 0.02
  cis-Aconitic acid Mean: 4.3
  β-Ala Mean: 2.0
[2]; rats, vs control
  serum levels of 2-oxoglutaric acid: significantly increased
  serum levels of N-acetylglutamic acid: not altered
  serum levels of arginine: not altered
  serum levels of pyruvic acid: not altered
  serum levels of serine: not altered
  serum levels of β-alanine: not altered
[3]; rat hippocampus
  Idh3a gene expression: 1.2250 ± 0.2326
[3]; [6]
  mRNA levels of Idh3a: did not alter; also recorded: not altered
[3]; rat prefrontal cortex
  Idh3a gene expression: 1.3420 ± 0.5725
[4]; rat hippocampus
  Aco2 gene expression: 1.1340 ± 0.1248
[4]; [6]
  mRNA levels of Aco2: did not alter; also recorded: not altered
[4]; rat prefrontal cortex
  Aco2 gene expression: 0.9921 ± 0.1576
[5]; rat hippocampus
  Aco1 gene expression: 1.0171 ± 0.0497
[5]; [6]
  mRNA levels of Aco1: did not alter; also recorded: not altered
[5]; rat prefrontal cortex
  Aco1 gene expression: 1.0091 ± 0.1737
